The record followed here is paper PMC11610143, “Characterization of dipyridamole as a novel ferroptosis inhibitor and its therapeutic potential in acute respiratory distress syndrome management” (Theranostics, 2024).

The target of one assay is T1, SOD1 (A549 cells) (Homo sapiens, UniProt P00441).
T1 construct: endogenous full-length SOD1 in A549 cells, read by western blot
Briefly: CETSA, western blot. Format: biochemical. The conditions noted are these: 10 μM DIPY, 30 min; A549 cells pretreated with RSL3 5 μM for 8 h; 45-72 °C.

In assay [1] the target is T2, human SOD1 protein (#HY-P71048, MCE) (Homo sapiens, UniProt P00441).
T2 construct: commercial human SOD1 protein (MCE); amine-coupled to CM5 chip
T2 sequence (P00441 2-154, one chain of several): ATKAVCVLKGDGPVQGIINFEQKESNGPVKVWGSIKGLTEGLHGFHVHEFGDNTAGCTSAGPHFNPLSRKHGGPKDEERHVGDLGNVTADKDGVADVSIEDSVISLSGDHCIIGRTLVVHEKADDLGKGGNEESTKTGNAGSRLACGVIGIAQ
As to the kind of experiment: SPR (Biacore T200, CM5 chip, SOD1 immobilised). The class given is binding.

T1 sequence (P00441 2-154): as the sequence (P00441 2-154, one chain of several) above

With `OCCN(CCO)c1nc(N2CCCCC2)c2nc(N(CCO)CCO)nc(N3CCCCC3)c2n1` [Dipyridamole], the “thermal stability (CETSA)” value on SOD1 (A549 cells) is given as “DIPY elevated the thermal stability of SOD1 compared with the control group”. Also, the Kd in assay [1] was 8.83 µM.
